For test [1], the target named is Galectin-1 (Homo sapiens, UniProt P09382). Briefly: Fluorescence anisotropy assay, affinity for galectin-1. The test is classed as binding. Particulars: compound as inhibitor of the interaction between galectin and a fluorescein tagged saccharide probe. On the procedure:
(§1) The affinity of Example 1-43 for galectins were determined by a fluorescence anisotropy assay where the compound was used as an inhibitor of the interaction between galectin and a fluorescein tagged saccharide probe as described Sörme, P., Kahl-Knutsson, B., Huflejt, M., Nilsson, U. J., and Leffler H. (2004) Fluorescence polarization as an analytical tool to evaluate galectin-ligand interactions. Anal. Biochem. 334: 36-47, (Sörme et al., 2004) and Monovalent interactions of Galectin-1 By Salomonsson, Emma; Larumbe, Amaia; Tejler, Johan; Tullberg, Erik; Rydberg, Hanna; Sundin, Anders; Khabut, Areej; Frejd, Torbjomn; Lobsanov, Yuri D.; Rini, James M.; et al, From Biochemistry (2010), 49(44), 9518-9532, (Salomonsson et al., 2010).
For orientation: Polarisation of emitted light reports the rotation of a fluorescent probe.

The target in test [2] is Galectin-3 (Homo sapiens, UniProt P17931). Briefly: Fluorescence anisotropy assay, affinity for galectin-3. The test is classed as binding. Particulars: compound as inhibitor of the interaction between galectin and a fluorescein tagged saccharide probe. The method, then:
as §1

pKd: −log10 of the molar value.

Chain of Galectin-1 (P09382 whole entry): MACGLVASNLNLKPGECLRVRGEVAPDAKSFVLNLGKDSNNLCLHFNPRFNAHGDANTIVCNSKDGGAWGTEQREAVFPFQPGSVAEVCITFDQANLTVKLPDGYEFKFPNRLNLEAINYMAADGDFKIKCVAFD
Chain of Galectin-3 (P17931 whole entry): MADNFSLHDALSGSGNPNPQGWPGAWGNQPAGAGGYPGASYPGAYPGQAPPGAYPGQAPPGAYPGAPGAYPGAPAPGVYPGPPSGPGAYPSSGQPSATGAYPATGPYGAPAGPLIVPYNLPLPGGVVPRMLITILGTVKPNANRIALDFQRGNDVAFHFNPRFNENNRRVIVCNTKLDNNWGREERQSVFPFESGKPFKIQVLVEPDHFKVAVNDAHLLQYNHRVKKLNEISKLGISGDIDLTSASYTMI

`CNC(=O)c1ccc(Br)cc1S[C@H]1OC(CO)[C@H](O)C(n2cc(-n3ccc(Cl)n3)nn2)C1OC` (stereo partly drawn) [Example 1, 5-Bromo-2-(N-methyl-carbonyl)phenyl 3-[4-(3-chloro-1H-1,2-pyrazol-1-yl)-1H-1,2,3-triazol-1-yl]-3-deoxy-2-O-methyl-1-thio-α-D-galactopyranoside]: the results for the negative logarithm of the Kd (pKd) in test [1] and in test [2] were 7.24 and 6.80, respectively.

For the compound `COC1C(n2cc(-n3ccc(Cl)n3)nn2)[C@@H](O)C(CO)O[C@@H]1Sc1cc(Br)ccc1C#N` (stereo partly drawn) [Example 2, 5-Bromo-2-cyanophenyl 3-[4-(3-chloro-1H-1,2-pyrazol-1-yl)-1H-1,2,3-triazol-1-yl]-3-deoxy-2-O-methyl-1-thio-α-D-galactopyranoside], the pKd (usually the Kd on a negative log10 scale, so that one unit is a factor of ten) was 7.07 in test [1] and 6.89 in test [2].

Take `COC1C(n2cc(-n3ccc(Cl)n3)nn2)[C@@H](O)C(CO)O[C@@H]1Sc1cc(Br)cnc1C#N` (stereo partly drawn) [Example 3, 5-Bromo-2-cyanopyridin-3-yl 3-[4-(3-chloro-1H-1,2-pyrazol-1-yl)-1H-1,2,3-triazol-1-yl]-3-deoxy-2-O-methyl-1-thio-α-D-galactopyranoside]: the pKd in test [1] is 6.89; in test [2] it was 6.92.

On to `OCC1O[C@H](Sc2cncc(Cl)c2)C(O)C(n2cc(-n3ccc(F)n3)nn2)[C@H]1O` (stereo partly drawn) [Example 4, 5-Chloropyridin-3-yl 3-deoxy-3-[4-(3-fluoro-1H-1,2-pyrazol-1-yl)-1H-1,2,3-triazol-1-yl]-1-thio-α-D-galactopyranoside], for which the pKd is 5.77 in test [1] and 6.44 in test [2].

`OCC1O[C@H](Sc2cncc(Cl)c2)C(O)C(n2cc(-n3ccc(Cl)n3)nn2)[C@H]1O` (stereo partly drawn) [Example 5, 5-Chloropyridin-3-yl 3-[4-(3-chloro-1H-1,2-pyrazol-1-yl)-1H-1,2,3-triazol-1-yl]-3-deoxy-1-thio-α-D-galactopyranoside]: the pKd in test [1] is 6.30; in test [2] it was 6.51.

Consider `COC1C(n2cc(-n3ccc(Cl)n3)nn2)[C@@H](O)C(CO)O[C@@H]1Sc1cc(Cl)cnc1C(F)(F)F` (stereo partly drawn) [Example 6, 5-Chloro-2-(trifluoromethyl)pyridin-3-yl 3-[4-(3-chloro-1H-1,2-pyrazol-1-yl)-1H-1,2,3-triazol-1-yl]-3-deoxy-2-O-methyl-1-thio-α-D-galactopyranoside], for which the pKd in test [1] was 6.70; in test [2] it was 6.57.

Consider `COC1C(n2cc(-n3ccc(Cl)n3)nn2)[C@@H](O)C(CO)O[C@@H]1Sc1cc(Br)cnc1C(F)(F)F` (stereo partly drawn) [Example 7, 5-Bromo-2-(trifluoromethyl)pyridin-3-yl 3-[4-(3-chloro-1H-1,2-pyrazol-1-yl)-1H-1,2,3-triazol-1-yl]-3-deoxy-2-O-methyl-1-thio-α-D-galactopyranoside], for which the pKd was 6.82 in test [1] and 6.68 in test [2].

Consider `COC1C(n2cc(-n3ccc(Cl)n3)nn2)[C@@H](O)C(CO)O[C@@H]1Sc1cnc(C(F)(F)F)c(Cl)c1` (stereo partly drawn) [Example 8, 3-Chloro-2-(trifluoromethyl)pyridin-5-yl 3-[4-(3-chloro-1H-1,2-pyrazol-1-yl)-1H-1,2,3-triazol-1-yl]-3-deoxy-2-O-methyl-1-thio-α-D-galactopyranoside], for which the pKd in test [1] was 6.44; in test [2] it was 6.27.

On to `COC1C(n2cc(-n3ccc(Cl)n3)nn2)[C@@H](O)C(CO)O[C@@H]1Sc1cnc(C(F)(F)F)c(Br)c1` (stereo partly drawn) [Example 9, 3-Bromo-2-(trifluoromethyl)pyridin-5-yl 3-[4-(3-chloro-1H-1,2-pyrazol-1-yl)-1H-1,2,3-triazol-1-yl]-3-deoxy-2-O-methyl-1-thio-α-D-galactopyranoside], for which the pKd is 6.68 in test [1] and 6.41 in test [2].

On to `COC1C(n2cc(-n3ccc(Cl)n3)nn2)[C@@H](O)C(CO)O[C@@H]1Sc1cc(Br)cnc1C(=O)N(C)C` (stereo partly drawn) [Example 10, 5-Bromo-2-(N,N-dimethylcarbamoyl)pyridin-3-yl 3-[4-(3-chloro-1H-1,2-pyrazol-1-yl)-1H-1,2,3-triazol-1-yl]-3-deoxy-2-O-methyl-1-thio-α-D-galactopyranoside], for which the pKd in test [1] is 7.27; in test [2], 7.14.

As for `COC1C(n2cc(-n3cc(Cl)cn3)nn2)[C@@H](O)C(CO)O[C@@H]1Sc1cc(Br)cnc1C#N` (stereo partly drawn) [Example 11, 5-Bromo-2-cyanopyridin-3-yl 3-[4-(4-chloro-1H-1,2-pyrazol-1-yl)-1H-1,2,3-triazol-1-yl]-3-deoxy-2-O-methyl-1-thio-α-D-galactopyranoside], the pKd in test [1] was 6.28; in test [2] it was 6.38.

On to `COC1C(n2cc(-n3ccc(F)n3)nn2)[C@@H](O)C(CO)O[C@@H]1Sc1cc(Br)cnc1C#N` (stereo partly drawn) [Example 12, 5-Bromo-2-cyanopyridin-3-yl 3-deoxy-3-[4-(3-fluoro-1H-1,2-pyrazol-1-yl)-1H-1,2,3-triazol-1-yl]-2-O-methyl-1-thio-α-D-galactopyranoside], for which the pKd in test [1] is 6.74; in test [2], 6.80.

With `COC1C(n2cc(-n3cc(F)cn3)nn2)[C@@H](O)C(CO)O[C@@H]1Sc1cc(Br)cnc1C#N` (stereo partly drawn) [Example 13, 5-Bromo-2-cyanopyridin-3-yl 3-deoxy-3-[4-(4-fluoro-1H-1,2-pyrazol-1-yl)-1H-1,2,3-triazol-1-yl]-2-O-methyl-1-thio-α-D-galactopyranoside], the pKd was 6.74 in test [1] and 5.77 in test [2].

On to `COC1C(n2cc(-n3ccc(C)n3)nn2)[C@@H](O)C(CO)O[C@@H]1Sc1cc(Br)cnc1C#N` (stereo partly drawn) [Example 14, 5-Bromo-2-cyanopyridin-3-yl 3-deoxy-3-[4-(3-methyl-1H-1,2-pyrazol-1-yl)-1H-1,2,3-triazol-1-yl]-2-O-methyl-1-thio-α-D-galactopyranoside], for which the pKd in test [1] is 6.74; in test [2], 5.85.

As to `COC1C(n2cc(-n3nccc3C)nn2)[C@@H](O)C(CO)O[C@@H]1Sc1cc(Br)cnc1C#N` (stereo partly drawn) [Example 15, 5-Bromo-2-cyanopyridin-3-yl 3-deoxy-3-[4-(5-methyl-1H-1,2-pyrazol-1-yl)-1H-1,2,3-triazol-1-yl]-2-O-methyl-1-thio-α-D-galactopyranoside], the figures for the pKd in test [1] and in test [2] were 6.05 and 5.37, respectively.

In the case of `COC1C(n2cc(-n3nc(Cl)cc3C)nn2)[C@@H](O)C(CO)O[C@@H]1Sc1cc(Br)cnc1C#N` (stereo partly drawn) [Example 16, 5-Bromo-2-cyanopyridin-3-yl 3-[4-(3-chloro-5-methyl-1H-1,2-pyrazol-1-yl)-1H-1,2,3-triazol-1-yl]-3-deoxy-2-O-methyl-1-thio-α-D-galactopyranoside], the figures for the pKd in test [1] and in test [2] were 6.46 and 6.40, respectively.

`COC1C(n2cc(-n3nc(C(F)(F)F)cc3Cl)nn2)[C@@H](O)C(CO)O[C@@H]1Sc1cc(Br)cnc1C#N` (stereo partly drawn) [Example 17, 5-Bromo-2-cyanopyridin-3-yl 3-{4-[5-chloro-3-(trifluoromethyl)-1H-1,2-pyrazol-1-yl]-1H-1,2,3-triazol-1-yl}-3-deoxy-2-O-methyl-1-thio-α-D-galactopyranoside]: the pKd in test [1] was 5.70; in test [2] it was 6.25.

On to `COC1C(n2cc(-n3cc(C)c(Cl)n3)nn2)[C@@H](O)C(CO)O[C@@H]1Sc1cc(Br)cnc1C#N` (stereo partly drawn) [Example 18, 5-Bromo-2-cyanopyridin-3-yl 3-[4-(3-chloro-4-methyl-1H-1,2-pyrazol-1-yl)-1H-1,2,3-triazol-1-yl]-3-deoxy-2-O-methyl-1-thio-α-D-galactopyranoside], for which the pKd is 6.46 in test [1] and 7.39 in test [2].

With `CCN(C(=O)c1ncc(Br)cc1S[C@H]1OC(CO)[C@H](O)C(n2cc(-n3ccc(Cl)n3)nn2)C1OC)C(C)C` (stereo partly drawn) [Example 19, 5-Bromo-2-(N,N-ethylisopropylcarbamoyl)pyridin-3-yl 3-[4-(3-chloro-1H-1,2-pyrazol-1-yl)-1H-1,2,3-triazol-1-yl]-3-deoxy-2-O-methyl-1-thio-α-D-galactopyranoside], the pKd in test [1] was 6.96; in test [2] it was 7.04.

As for `COC1C(n2cc(-n3ccc(Cl)n3)nn2)[C@@H](O)C(CO)O[C@@H]1Sc1cc(Br)cnc1C(=O)N(CC(C)C)CC(C)C` (stereo partly drawn) [Example 20, 5-Bromo-2-(N,N-diisobutylcarbamoyl)pyridin-3-yl 3-[4-(3-chloro-1H-1,2-pyrazol-1-yl)-1H-1,2,3-triazol-1-yl]-3-deoxy-2-O-methyl-1-thio-α-D-galactopyranoside], the pKd in test [1] and in test [2] was 6.44 throughout.

Turning to `CCN(CC1CC1)C(=O)c1ncc(Br)cc1S[C@H]1OC(CO)[C@H](O)C(n2cc(-n3ccc(Cl)n3)nn2)C1OC` (stereo partly drawn) [Example 21, 5-Bromo-2-[N,N-(cyclopropylmethyl)ethylcarbamoyl]pyridin-3-yl 3-[4-(3-chloro-1H-1,2-pyrazol-1-yl)-1H-1,2,3-triazol-1-yl]-3-deoxy-2-O-methyl-1-thio-α-D-galactopyranoside], the pKd in test [1] and in test [2] was 7.00 in each case.

As to `COC1C(n2cc(-n3ccc(Cl)n3)nn2)[C@@H](O)C(CO)O[C@@H]1Sc1cc(Br)cnc1C(=O)N(C)CC(C)(C)F` (stereo partly drawn) [Example 22, 5-Bromo-2-[N,N-(2-fluoro-2-methylpropyl)methylcarbamoyl]pyridin-3-yl 3-[4-(3-chloro-1H-1,2-pyrazol-1-yl)-1H-1,2,3-triazol-1-yl]-3-deoxy-2-O-methyl-1-thio-α-D-galactopyranoside], the pKd in test [1] is 7.01; in test [2] it was 7.12.

Consider `CCN(C(=O)c1ncc(Br)cc1S[C@H]1OC(CO)[C@H](O)C(n2cc(-n3ccc(Cl)n3)nn2)C1OC)C(C)(C)C` (stereo partly drawn) [Example 23, 5-Bromo-2-[N,N-(tert-butyl)ethylcarbamoyl]pyridin-3-yl 3-[4-(3-chloro-1H-1,2-pyrazol-1-yl)-1H-1,2,3-triazol-1-yl]-3-deoxy-2-O-methyl-1-thio-α-D-galactopyranoside], for which the pKd was 7.06 in test [1] and 7.14 in test [2].

(Values after US20240287122A1, “NOVEL GALACTOSIDE INHIBITOR OF GALECTINS” (GALECTO BIOTECH AB, priority 2020, published 2024).)
